Measured values: patent US8828456B2, “Method of external skin application of composition containing red pine root extract” (Amorepacific Corporation, priority 2009, dated 2014)

Test: Free radical removal activity (DPPH method)
Assay type: biochemical
Experimental: Specifically, each of the extracts obtained in Example 1 and Comparative Example 1 was diluted in ethanol to varying concentrations (0, 50, 100, 200, 300 and 400 μg/mL), and 10 μl of each dilution was added to each well of a 96-well plate. A solution of 5 mM DPPH in ethanol was added to each well to a total volume of 200 μl. The resulting solution was incubated at 37° C. for 30 minutes, and then measured at 520 nm using an ELISA reader (DI Biotech, Korea). Based on the measured absorbance, free radical removal activity was calculated according to the following Equation 1. As a positive control, vitamin C known to have excellent antioxidant activity was used. Radical removal activity (%)=absorbance of control-absorbance of sample/absorbance of control×100 Equation 1

In the case of `O=C1O[C@H]([C@@H](O)CO)C(O)=C1O` [Vitamin C, vitamin C], the “Radical Removal Activity (%)” value (50 μg/mL) is reported as 30%, the “Radical Removal Activity (%)” value (100 μg/mL) is reported as 90% and the “Radical Removal Activity (%)” value (200 μg/mL) is reported as 91%. The “Radical Removal Activity (%)” value (300 μg/mL) was 90% and the “Radical Removal Activity (%)” value (400 μg/mL) was 90%.
